Measurements taken from patent publication US20050239656A1, “Pyridine compounds or salts thereof and herbicides containing the same” (priority 2002, published 2005).

test system: rice (var. Nihonbare); experiment: Test Example 3: paddy pot test, transplanted rice; type: in vivo, Oryza sativa L.; settings: active ingredient 125 g/ha, applied 4th day after transplantation, visually observed 21st day after application, 0 = non-treated, 100 = complete kill
From the text: (§1) Paddy field soil was put into a 1/1,000,000 ha pot, and seed of barnyardgrass and japanese bulrush were sown and slightly covered with soil. Then, the pot was left to stand still in a greenhouse in a state where the depth of flooding water was from 0.5 to 1 cm, and one day or two days later, tubers of japanese ribbon wapato were planted. Thereafter, the depth of flooding water was maintained at a level of from 3 to 4 cm, and when barnyardgrass and japanese bulrush reached a 0.5 leaf stage and japanese ribbon wapato reached a primary leaf stage, an aqueous diluted solution of a wettable powder or emulsifiable concentrate having the compound of the present invention formulated in accordance with a usual formulation method, was uniformly applied under submerged conditions by a pipette so that the dose of the active ingredient would be at a predetermined level. On the other hand, paddy field soil was put into a 1/1,000,000 ha pot and puddled and leveled, and the depth of flooding water was from 3 to 4 cm. Next day, rice (var. Nihonbare) of 2 leaf stage was transplanted in a depth of 3 cm. On the 4th day after the transplantation, the compound of the present invention was applied in the same manner as described above. On the 14 days after the application of the herbicide, the growth of barnyard grass, japanese burlrush and japanese ribbon wapato was visually observed and on the 21st day after the application of the herbicide, the growth of rice was visually observed, and the herbicidal effects were evaluated by the growth-controlling degrees (%) ranging from 0 (equivalent to the non-treated plot) to 100 (complete kill), whereby the results shown in Table 5 were obtained.

For CC(C)C(c1cnccc1Cl)N(C)C(=O)Cc1ccc(F)cc1F (stereo not drawn) [I-71], the “Growth controlling degree (%) Rice” value was 0%.

same assay, conditions: active ingredient 250 g/ha, applied 4th day after transplantation, visually observed 21st day after application, 0 = non-treated, 100 = complete kill

CC(C)C(c1cnccc1C(F)(F)F)N(C)C(=O)COc1c(F)c(F)c(F)c(F)c1F (stereo not drawn) [I-252] and Cc1ccccc1OCC(=O)N(C)C(c1cnccc1C(F)(F)F)C(C)C (stereo not drawn) [I-240] are the same in “Growth controlling degree (%) Rice” value: 0% for the first, 0% for the second.

First: CC(C)C(c1cnccc1C(F)(F)F)N(C)C(=O)COc1ccc(Cl)cc1 (stereo not drawn) [I-248]
Second: Cc1cccc(OCC(=O)N(C)C(c2cnccc2C(F)(F)F)C(C)C)c1 (stereo not drawn) [I-238]
The “Growth controlling degree (%) Rice” value of the first is lower: 0% for the first, 20% for the second.

First: CC(C)C(c1cnccc1Cl)N(C)C(=O)Cc1ccc(Cl)c(Cl)c1 (stereo not drawn) [I-80]
Second: CC(C)C(c1cnccc1Br)N(C)C(=O)Cc1ccccc1 (racemic) [I-110]
The “Growth controlling degree (%) Rice” value of the first is higher: 20% for the first, 0% for the second.

CC(Oc1ccc(F)cc1F)C(=O)N(C)C(c1cnccc1C(F)(F)F)C(C)C (mixture of isomers) [I-138] and CCN(C(=O)Cc1cc(F)ccc1F)C(c1cnccc1C(F)(F)F)C(C)C (stereo not drawn) [I-98] are the same in “Growth controlling degree (%) Rice” value: 10% for the first, 10% for the second.

CC(C)C(c1cnccc1C(F)(F)F)N(C)S(=O)(=O)c1ccc(C(F)(F)F)cc1 (stereo not drawn) [I-146] and COc1ccc(S(=O)(=O)N(C)C(c2cnccc2C(F)(F)F)C(C)C)cc1 (stereo not drawn) [I-144] are the same in “Growth controlling degree (%) Rice” value: 20% for the first, 20% for the second.

CSc1ccc(CC(=O)N(C)C(c2cnccc2C(F)(F)F)C(C)C)cc1 (stereo not drawn) [I-37] and COc1ccccc1CC(=O)N(C)C(c1cnccc1C(F)(F)F)C(C)C (stereo not drawn) [I-35] are the same in “Growth controlling degree (%) Rice” value: 0% for the first, 0% for the second.

CC(C)C(c1cnccc1C(F)(F)F)N(C)C(=O)OCc1ccccc1 (racemic) [I-111] and CC(C)C(c1cnccc1C(F)(F)F)N(C)C(=O)C=Cc1ccc(Cl)cc1 (stereo not drawn) [I-171] are the same in “Growth controlling degree (%) Rice” value: 0% for the first, 0% for the second.

test system: barnyardgrass; experiment: Test Example 3: paddy pot test, application under submerged conditions; type: in vivo, Echinochloa crus-galli L.; settings: active ingredient 125 g/ha; submerged application at 0.5 leaf stage; visually observed 14 days after application; 0 = non-treated, 100 = complete kill
From the text: as §1, with “the” for “the other hand, paddy field soil was put into a 1/1,000,000 ha pot and puddled and leveled, and the depth of flooding water was from 3 to 4 cm. Next day, rice (var. Nihonbare) of 2 leaf stage was transplanted in a depth of 3 cm. On the 4th day after the transplantation, the compound of the present invention was applied in the same manner as described above. On the”

With CC(C)C(c1cnccc1Cl)N(C)C(=O)Cc1ccc(F)cc1F (stereo not drawn) [I-71] the “Growth controlling degree (%) Barnyardgrass” value was 90%.

same assay, conditions: active ingredient 250 g/ha; submerged application at 0.5 leaf stage; visually observed 14 days after application; 0 = non-treated, 100 = complete kill

Going from CC(C)C(c1cnccc1C(F)(F)F)N(C)C(=O)COc1c(F)c(F)c(F)c(F)c1F (stereo not drawn) [I-252] to Cc1ccccc1OCC(=O)N(C)C(c1cnccc1C(F)(F)F)C(C)C (stereo not drawn) [I-240], the “Growth controlling degree (%) Barnyardgrass” value rises from 95% to 100%.

First: CC(C)C(c1cnccc1C(F)(F)F)N(C)C(=O)COc1ccc(Cl)cc1 (stereo not drawn) [I-248]
Second: Cc1cccc(OCC(=O)N(C)C(c2cnccc2C(F)(F)F)C(C)C)c1 (stereo not drawn) [I-238]
The “Growth controlling degree (%) Barnyardgrass” value of the first is higher: 98% for the first, 95% for the second.

CC(C)C(c1cnccc1Cl)N(C)C(=O)Cc1ccc(Cl)c(Cl)c1 (stereo not drawn) [I-80] and CC(C)C(c1cnccc1Br)N(C)C(=O)Cc1ccccc1 (racemic) [I-110] are the same in “Growth controlling degree (%) Barnyardgrass” value: 98% for the first, 98% for the second.

Compared with CC(Oc1ccc(F)cc1F)C(=O)N(C)C(c1cnccc1C(F)(F)F)C(C)C (mixture of isomers) [I-138], CCN(C(=O)Cc1cc(F)ccc1F)C(c1cnccc1C(F)(F)F)C(C)C (stereo not drawn) [I-98] is higher in “Growth controlling degree (%) Barnyardgrass” value: 98% for the first, 100% for the second.

Compared with CC(C)C(c1cnccc1C(F)(F)F)N(C)S(=O)(=O)c1ccc(C(F)(F)F)cc1 (stereo not drawn) [I-146], COc1ccc(S(=O)(=O)N(C)C(c2cnccc2C(F)(F)F)C(C)C)cc1 (stereo not drawn) [I-144] is higher in “Growth controlling degree (%) Barnyardgrass” value: 98% for the first, 100% for the second.

CSc1ccc(CC(=O)N(C)C(c2cnccc2C(F)(F)F)C(C)C)cc1 (stereo not drawn) [I-37] and COc1ccccc1CC(=O)N(C)C(c1cnccc1C(F)(F)F)C(C)C (stereo not drawn) [I-35] are the same in “Growth controlling degree (%) Barnyardgrass” value: 100% for the first, 100% for the second.

Compared with CC(C)C(c1cnccc1C(F)(F)F)N(C)C(=O)OCc1ccccc1 (racemic) [I-111], CC(C)C(c1cnccc1C(F)(F)F)N(C)C(=O)C=Cc1ccc(Cl)cc1 (stereo not drawn) [I-171] is lower in “Growth controlling degree (%) Barnyardgrass” value: 90% for the first, 60% for the second.

test system: japanese bulrush; experiment: as above; type: in vivo, Scirpus juncoides; settings: active ingredient 125 g/ha; submerged application at 0.5 leaf stage; visually observed 14 days after application; 0 = non-treated, 100 = complete kill
From the text: as §1, with “the” for “the other hand, paddy field soil was put into a 1/1,000,000 ha pot and puddled and leveled, and the depth of flooding water was from 3 to 4 cm. Next day, rice (var. Nihonbare) of 2 leaf stage was transplanted in a depth of 3 cm. On the 4th day after the transplantation, the compound of the present invention was applied in the same manner as described above. On the”

For CC(C)C(c1cnccc1Cl)N(C)C(=O)Cc1ccc(F)cc1F (stereo not drawn) [I-71], the “Growth controlling degree (%) Japanese bulrush” value was 90%.

same assay, conditions: active ingredient 250 g/ha; submerged application at 0.5 leaf stage; visually observed 14 days after application; 0 = non-treated, 100 = complete kill

Going from CC(C)C(c1cnccc1C(F)(F)F)N(C)C(=O)COc1c(F)c(F)c(F)c(F)c1F (stereo not drawn) [I-252] to Cc1ccccc1OCC(=O)N(C)C(c1cnccc1C(F)(F)F)C(C)C (stereo not drawn) [I-240], the “Growth controlling degree (%) Japanese bulrush” value rises from 98% to 100%.

First: CC(C)C(c1cnccc1C(F)(F)F)N(C)C(=O)COc1ccc(Cl)cc1 (stereo not drawn) [I-248]
Second: Cc1cccc(OCC(=O)N(C)C(c2cnccc2C(F)(F)F)C(C)C)c1 (stereo not drawn) [I-238]
The “Growth controlling degree (%) Japanese bulrush” value of the first is higher: 98% for the first, 95% for the second.

CC(C)C(c1cnccc1Cl)N(C)C(=O)Cc1ccc(Cl)c(Cl)c1 (stereo not drawn) [I-80] and CC(C)C(c1cnccc1Br)N(C)C(=O)Cc1ccccc1 (racemic) [I-110] are the same in “Growth controlling degree (%) Japanese bulrush” value: 90% for the first, 90% for the second.

First: CC(Oc1ccc(F)cc1F)C(=O)N(C)C(c1cnccc1C(F)(F)F)C(C)C (mixture of isomers) [I-138]
Second: CCN(C(=O)Cc1cc(F)ccc1F)C(c1cnccc1C(F)(F)F)C(C)C (stereo not drawn) [I-98]
The “Growth controlling degree (%) Japanese bulrush” value of the first is higher: 100% for the first, 80% for the second.

Compared with CC(C)C(c1cnccc1C(F)(F)F)N(C)S(=O)(=O)c1ccc(C(F)(F)F)cc1 (stereo not drawn) [I-146], COc1ccc(S(=O)(=O)N(C)C(c2cnccc2C(F)(F)F)C(C)C)cc1 (stereo not drawn) [I-144] is higher in “Growth controlling degree (%) Japanese bulrush” value: 80% for the first, 98% for the second.

Going from CSc1ccc(CC(=O)N(C)C(c2cnccc2C(F)(F)F)C(C)C)cc1 (stereo not drawn) [I-37] to COc1ccccc1CC(=O)N(C)C(c1cnccc1C(F)(F)F)C(C)C (stereo not drawn) [I-35], the “Growth controlling degree (%) Japanese bulrush” value rises from 50% to 95%.

Compared with CC(C)C(c1cnccc1C(F)(F)F)N(C)C(=O)OCc1ccccc1 (racemic) [I-111], CC(C)C(c1cnccc1C(F)(F)F)N(C)C(=O)C=Cc1ccc(Cl)cc1 (stereo not drawn) [I-171] is higher in “Growth controlling degree (%) Japanese bulrush” value: 10% for the first, 98% for the second.

test system: japanese ribbon wapato; experiment: as above; type: in vivo, Sagittaria pygniaea; settings: active ingredient 125 g/ha; submerged application at primary leaf stage; visually observed 14 days after application; 0 = non-treated, 100 = complete kill
From the text: as §1, with “the” for “the other hand, paddy field soil was put into a 1/1,000,000 ha pot and puddled and leveled, and the depth of flooding water was from 3 to 4 cm. Next day, rice (var. Nihonbare) of 2 leaf stage was transplanted in a depth of 3 cm. On the 4th day after the transplantation, the compound of the present invention was applied in the same manner as described above. On the”

CC(C)C(c1cnccc1Cl)N(C)C(=O)Cc1ccc(F)cc1F (stereo not drawn) [I-71] was tested, and the “Growth controlling degree (%) Japanese ribbon wapato” value was 40%.

same assay, conditions: active ingredient 250 g/ha; submerged application at primary leaf stage; visually observed 14 days after application; 0 = non-treated, 100 = complete kill

Going from CC(C)C(c1cnccc1C(F)(F)F)N(C)C(=O)COc1c(F)c(F)c(F)c(F)c1F (stereo not drawn) [I-252] to Cc1ccccc1OCC(=O)N(C)C(c1cnccc1C(F)(F)F)C(C)C (stereo not drawn) [I-240], the “Growth controlling degree (%) Japanese ribbon wapato” value rises from 0% to 50%.

Going from CC(C)C(c1cnccc1C(F)(F)F)N(C)C(=O)COc1ccc(Cl)cc1 (stereo not drawn) [I-248] to Cc1cccc(OCC(=O)N(C)C(c2cnccc2C(F)(F)F)C(C)C)c1 (stereo not drawn) [I-238], the “Growth controlling degree (%) Japanese ribbon wapato” value rises from 20% to 60%.

CC(C)C(c1cnccc1Cl)N(C)C(=O)Cc1ccc(Cl)c(Cl)c1 (stereo not drawn) [I-80] and CC(C)C(c1cnccc1Br)N(C)C(=O)Cc1ccccc1 (racemic) [I-110] are the same in “Growth controlling degree (%) Japanese ribbon wapato” value: 20% for the first, 20% for the second.

Compared with CC(C)C(c1cnccc1C(F)(F)F)N(C)S(=O)(=O)c1ccc(C(F)(F)F)cc1 (stereo not drawn) [I-146], CSc1ccc(CC(=O)N(C)C(c2cnccc2C(F)(F)F)C(C)C)cc1 (stereo not drawn) [I-37] is higher in “Growth controlling degree (%) Japanese ribbon wapato” value: 0% for the first, 10% for the second.

Compared with CCN(C(=O)Cc1cc(F)ccc1F)C(c1cnccc1C(F)(F)F)C(C)C (stereo not drawn) [I-98], COc1ccccc1CC(=O)N(C)C(c1cnccc1C(F)(F)F)C(C)C (stereo not drawn) [I-35] is higher in “Growth controlling degree (%) Japanese ribbon wapato” value: 40% for the first, 70% for the second.

For CC(C)C(c1cnccc1C(F)(F)F)N(C)C(=O)C=Cc1ccc(Cl)cc1 (stereo not drawn) [I-171], the “Growth controlling degree (%) Japanese ribbon wapato” value was 0%.
